Assay results: patent US12226449B2, “Materials and methods for the prevention of rheumatoid arthritis” (The University of Toledo, priority 2018, dated 2025)
“Also recorded” adds a separate entry of the source.

Tests used:
Format in all cases: cell-based
[1] = tested on: human PBMCs; experiment: ELISA of secreted (accumulated) cytokines of PBMCs; conditions: drug present during 14-3-3ζ incubation
[2] = tested on: human PBMCs; experiment: T cell polarization of PBMCs by flow cytometry (CD4, CD366, IL-17, CD8, CD69); conditions: drug present during 14-3-3ζ incubation, prednisolone, prednisone, TJU103 1 μg/ml, cyclophosphamide 0.1 μg/ml, BV02 5 nM
Description: Cells were plated with 14-3-3ζ protein in a 96-well plate for 14 days at 37° C. in complete RPMI culture medium. Phytohemagglutinin (PHA) was used as a positive control. 10 μl MTT was added at a concentration of 5 mg/mL, and the plate was further incubated at 37° C. in the dark for 3 hours. Supernatant was then removed, and 100 μL DMSO was added for another hour before reading the absorbance at 570 nm using FLUOstar Omega microplate reader (BMG Labtech). For T cell differentiation, PBMCs were incubated with 1 μg/ml of 14-3-3ζ for 7 days followed by either the cellular staining for FACS analysis or ELISPOT as per manufacture's protocol. […] PBMCs incubated with 14-3-3ζ for 7 days at 37° C. were fixed in 2% paraformaldehyde for an hour, and washed with PBS. […] For surface staining, cells were stained in 50 μL PBS with 5 μl per million cells antibody for 30 minutes in the dark on ice. For intracellular staining, cells were permeabilized with Triton for 10-15 min. After staining, cells were washed with PBS and resuspended in 1 mL PBS for analysis. The following antibodies from Biolegend Inc. were used: […] Cells were sorted at FACSCanto II system (BD Biosciences) and analyzed using FlowJo software (version 10). A gate was created around an initial population of cells in the FSC-SSC plot, and this population of cells was further analyzed for CD4, CD366, and IL-17 expression. Unstained and isotype labelled cells were used as a control for setting the gates.

[3] = tested on: human PBMCs; experiment: ELISPOT assay of IFN-γ and IL-17 secreting cells; conditions: for effect on 14-3-3ζ-induced IFN-γ secreting cells / effect on 14-3-3ζ-induced IL-17 secreting cells: drug present during 14-3-3ζ incubation
Description: Cells were plated with 14-3-3ζ protein in a 96-well plate for 14 days at 37° C. in complete RPMI culture medium. Phytohemagglutinin (PHA) was used as a positive control. 10 μl MTT was added at a concentration of 5 mg/mL, and the plate was further incubated at 37° C. in the dark for 3 hours. Supernatant was then removed, and 100 μL DMSO was added for another hour before reading the absorbance at 570 nm using FLUOstar Omega microplate reader (BMG Labtech). For T cell differentiation, PBMCs were incubated with 1 μg/ml of 14-3-3ζ for 7 days followed by either the cellular staining for FACS analysis or ELISPOT as per manufacture's protocol. For testing the effect of drugs, prednisolone, prednisone, as well as TJU103, were used at 1 μg/ml concentration and cyclophosphamide was used at 0.1 μg/ml concentration.
The protocol was adopted from Immunospot kit from Cellular Technology Limited. In short, PBMCs incubated with 14-3-3ζ for 7 days were plated on the antibody coated ELISPOT plates. About 100,000 cells/well were added and incubated for 2 days at 37° C. followed by the developing protocol. Plates were read with a Quantihub ELISPOT plate reader and manually counted.

[4] = tested on: human PBMCs; experiment: PBMC proliferation, MTT assay; conditions: for effect on 14-3-3ζ-induced PBMC proliferation: inhibitor present during 14-3-3ζ incubation, BV02 5 nM, TJU103 1 μg/ml
Description: Blood from healthy donors was collected as per the approved IRB protocol. The protocol for isolation of PBMCs was previously reported. In short, whole blood was diluted with an equal volume of RPMI before layering on Ficoll-Paque PLUS in a 15 mL tube. Tubes were then centrifuged for 25 minutes with the brakes off at 950 g. PBMCs were collected from the layer between the plasma and Ficoll liquid. PBMCs were then washed twice with RPMI, with 7 min spins at 350×g to pellet the cells. Finally, cells were resuspended in complete RPMI before counting and plating. […] Phytohemagglutinin (PHA) was used as a positive control. 10 μl MTT was added at a concentration of 5 mg/mL, and the plate was further incubated at 37° C. in the dark for 3 hours. Supernatant was then removed, and 100 μL DMSO was added for another hour before reading the absorbance at 570 nm using FLUOstar Omega microplate reader (BMG Labtech). For T cell differentiation, PBMCs were incubated with 1 μg/ml of 14-3-3ζ for 7 days followed by either the cellular staining for FACS analysis or ELISPOT as per manufacture's protocol.

[5] = tested on: human PBMCs; experiment: ELISPOT assay of IFN-γ and IL-17 secreting cells; conditions: PBMC treated with protein for 7 d

How did the “effect on 14-3-3ζ-induced accumulated IL-17 level” value [1] turn out when `C[C@]12C=CC(=O)C=C1CC[C@@H]1[C@@H]2[C@@H](O)C[C@@]2(C)[C@H]1CC[C@]2(O)C(=O)CO` [prednisolone] was run?
The value was “Significant suppression; also recorded: reproduced effect on accumulated IL-17”.

And the “effect on IL-6 level” value [1]?
Its value is “bare minimum effect”.

And the “effect on 14-3-3ζ-induced CD366 positive CD4 cells (Th1)” value (“effect … (Th1)” below) [2]?
The value was “mild effect”.

What about the “effect on 14-3-3ζ-induced IL-17 positive CD4 cells (Th17)” value (from here on “effect … (Th17)”) [2] of the same molecule?
The value was “significant suppression; also recorded: strongly inhibited”.

What about the “effect … (Th1)” value ([2]; listed as Prednisolone) of the same molecule?
The value was “suppressed”.

What about the “effect … (Th17)” value ([2]; listed as Prednisolone) of the same molecule?
Its value is “suppressed”.

What about the “effect on 14-3-3ζ-induced IFN-γ secreting cells” value [3] of the same molecule?
The value was “Significant suppression; also recorded: strong inhibition”.

And the “effect on 14-3-3ζ-induced IL-17 secreting cells” value [3]?
Its value is “significant suppression; also recorded: strong inhibition”.

Which “effect … (Th1)” value [2] does the source give for `Cc1c(N2C(=O)c3ccc(C(=O)O)cc3C2=O)c(=O)n(-c2ccccc2)n1C` [BV02] here?
The value was “no effect; also recorded: did not affect”.

What about the “effect … (Th17)” value [2] of the same molecule?
The value was “no effect; also recorded: did not affect”.

What about the “effect on PHA induced IFN-γ secreting cells” value ([3]; BV02 present) of the same molecule?
Its value is “did not affect”.

And the “effect on PHA induced IL-17 secretion” value ([3]; BV02 present)?
The value was “partial inhibition”.

What about the “effect on 14-3-3ζ-induced IFN-γ secreting cells” value [3] of the same molecule?
The value was “did not show an increase; also recorded: significant inhibition”.

What about the “effect on 14-3-3ζ-induced IL-17 secreting cells” value [3] of the same molecule?
Its value is “did not show an increase; also recorded: significant inhibition”.

And the “effect on PHA induced PBMC proliferation” value ([4]; BV02 present)?
Its value is “no suppression; also recorded: did not affect”.

What about the “effect on 14-3-3ζ-induced PBMC proliferation” value [4] of the same molecule?
Its value is “no effect; also recorded: did not show any difference”.

What does the source list for `O=P1(N(CCCl)CCCl)NCCCO1` (stereo not drawn) [cyclophosphamide]?
effect on 14-3-3ζ-induced CD366 positive CD4 cells (Th1) [2]: significant suppression; also recorded: mild inhibition; effect on 14-3-3ζ-induced IL-17 positive CD4 cells (Th17) [2]: only milder inhibition; also recorded: no sufficient inhibition; also recorded: no effect; effect on 14-3-3ζ-induced IFN-γ secreting cells [3]: mild inhibition; also recorded: impacted only IFN-γ producing cells

`C[C@]12C=CC(=O)C=C1CC[C@@H]1[C@@H]2C(=O)C[C@@]2(C)[C@H]1CC[C@]2(O)C(=O)CO` [prednisone] was tested. Which “effect on 14-3-3ζ-induced IFN-γ secreting cells” value [3] did it give?
Its value is “no effect”.

And the “effect on 14-3-3ζ-induced IL-17 secreting cells” value [3]?
Its value is “no effect”.

Which results are given for `O=C(NN=Cc1c[nH]c2ccccc12)c1ccncc1` [TJU103]?
effect on 14-3-3ζ-induced accumulated IL-17 level [1]: no difference; effect on IL-6 level [1]: no difference; effect on 14-3-3ζ-induced accumulated IL-17 level ([1]; listed as TJU131): no significant difference; effect on 14-3-3ζ-induced CD366 positive CD4 cells (Th1) [2]: suppressed; effect on 14-3-3ζ-induced IL-17 positive CD4 cells (Th17) [2]: suppressed; effect on 14-3-3ζ-induced IFN-γ secreting cells [3]: stronger decrease; also recorded: suppressed; also recorded: Inhibition; effect on 14-3-3ζ-induced IL-17 secreting cells [3]: less sensitive to inhibition; effect on 14-3-3ζ-induced IFN-γ secreting cells ([3]; listed as TJU131): mild suppression; effect on 14-3-3ζ-induced IL-17 secreting cells ([3]; listed as TJU131): mild suppression; effect on 14-3-3ζ-induced PBMC proliferation [4]: did not inhibit

B1: 14-3-3ε: another 14-3-3 isoform, used for specificity and comparison (protein, UniProt P62258 1-255, looked up)
14-3-3 protein epsilon: MDDREDLVYQAKLAEQAERYDEMVESMKKVAGMDVELTVEERNLLSVAYKNVIGARRASWRIISSIEQKEENKGGEDKLKMIREYRQMVETELKLICCDILDVLDKHLIPAANTGESKVFYYKMKGDYHRYLAEFATGNDRKEAAENSLVAYKAASDIAMTELPPTHPIRLGLALNFSVFYYEILNSPDRACRLAKAAFDDAIAELDTLSEESYKDSTLIMQLLRDNLTLWTSDMQGDGEEQNKEALQDVEDENQ
For B1, which “number of IFN-γ and IL-17 secreting cells” value ([5]; listed as 14-3-3e) is on record?
Its value is “not replaced”.

What about the “number of IFN-γ and IL-17 secreting cells” value ([5]; listed as 14-3-3 epsilon) of the same molecule?
The value was “no significant effect”.
